Results from patent publication US5612369A, “Thrombin inhibitors” (3-Dimensional Pharmaceuticals, Inc., priority 1995, dated 1997).

What was measured:
factor Xa = experiment: In vitro inhibition of factor Xa (hydrolysis of Bz-Ile-Glu-Gly-Arg-pNa); type: biochemical, human; conditions: at 60 μM inhibitor; factor Xa 10 nM, Bz-Ile-Glu-Gly-Arg-pNa 26 μM, pH 7.5, 37° C.
Method: (§1) The ability of the compounds of the present invention to act as inhibitors of thrombin, factor Xa and plasmin catalytic activity was assessed by determining the concentration which inhibited enzyme activity by 50% using purified human enzymes. The concentration of added inhibitor that caused a 50% decrease in the initial rate of hydrolysis was defined as the IC50 value.
All assays are based on the ability of the test compound to inhibit the hydrolysis of a peptide p-nitroanilide substrate. In a typical experiment, appropriate substrate is prepared in DMSO, and diluted into an assay buffer consisting of 50ram HEPES and 130 mM NaCl at a pH of 7.5. The final concentration for each of the substrates is listed below. […]
In a typical IC50 determination, into each well of a 96 well plate is pipetted 280 uL of substrate solution, 10 μL of inhibitor solution, and the plate is allowed to thermally equilibrate at 37° C. in a Molecular Devices Plate Reader for at least 10 minutes. Reactions are initiated by the addition of a 20 μL aliquot of enzyme, and the absorbance increase at 405 nm is recorded for 15 minutes. […] The ratio of the velocity (rate of the change in absorbance as a function of time) for a sample containing no inhibitor is divided by the velocity of a sample containing inhibitor, and is plotted as a function of inhibitor concentration. […]

human α-thrombin = molecular target: T1, human α-thrombin (Homo sapiens, UniProt P00734); experiment: In vitro inhibition of purified thrombin (hydrolysis of Bz-Phe-Val-Arg-pNa); type: biochemical; conditions: for thrombin inhibition, potency and selectivity in words: conclusion from Table 1 (versus factor Xa and plasmin); for IC50: purified human α-thrombin 36 nM, Bz-Phe-Val-Arg-pNa 66 μM, pH 7.5, 37° C.
T1 construct: Purified human α-thrombin; purchased Enzyme Research Laboratories, Inc
Method: as §1
All assays are based on the ability of the test compound to inhibit the hydrolysis of a peptide p-nitroanilide substrate. In a typical experiment, appropriate substrate is prepared in DMSO, and diluted into an assay buffer consisting of 50ram HEPES and 130 mM NaCl at a pH of 7.5. The final concentration for each of the substrates is listed below. All substrate concentrations are at least 10 fold lower than Km to insure inhibition is competitive. Test compounds are prepared as 1 mg/ml solutions in DMSO, and three additional 10-fold dilutions in DMSO are prepared. Enzyme solutions are prepared at the concentrations listed below in assay buffer.
In a typical IC50 determination, into each well of a 96 well plate is pipetted 280 uL of substrate solution, 10 μL of inhibitor solution, and the plate is allowed to thermally equilibrate at 37° C. in a Molecular Devices Plate Reader for at least 10 minutes. Reactions are initiated by the addition of a 20 μL aliquot of enzyme, and the absorbance increase at 405 nm is recorded for 15 minutes. Data corresponding to less than 10% of the total substrate hydrolysis is used in the calculations. The ratio of the velocity (rate of the change in absorbance as a function of time) for a sample containing no inhibitor is divided by the velocity of a sample containing inhibitor, and is plotted as a function of inhibitor concentration. The inverse of the slope is the concentration of inhibitor which produces a 50% decrease in activity of the enzyme. This concentration is referred to as the IC50.
Thrombin activity was assessed as the ability to hydrolyse the substrate N-benzoyl-Phe-Val-Arg-p-nitroanilide (Bz-Phe-Val-Arg-pNa), and was obtained from Sigma Chemical Company (St. Louis, Mo.). Substrate solutions were prepared at a concentration of 60 μM (60 μM<<Km =1.2 mM) in assay buffer. Final DMSO concentration was 0.3%. Purified human α-thrombin was obtained from Enzyme Research Laboratories, Inc., and was diluted into assay buffer to a concentration of 1.2 μM. Final reagent concentrations were: [thrombin]=36 nM, [Bz-Phe-Val-Arg-pNa]=66 μM, [inhibitor]=60 to 0.06 μM.

Row | IC50 (human α-thrombin) [nM] | Structure (SMILES) | Factor Xa % Inhibition at 60 μM (factor Xa) [%] | thrombin inhibition, potency and selectivity in words (human α-thrombin)
1 | 4700 | COc1cc(CNC(=O)[C@@H]2CCCN2C(=O)[C@H](N)Cc2ccccc2)ccc1O [Compound 7, D-phenylalanyl-N-[2-(4-hydroxy-3-methoxybenzyl)]-L-prolinamide] | 0 | highly selective and potent inhibitors of thrombin
2 | 1000 | Nc1ccc(CNC(=O)[C@@H]2CCCN2C(=O)[C@H](N)Cc2ccccc2)cc1 [Compound 13, D-phenylalanyl-N-[2-(4-aminobenzyl)]-L-prolinamide] | 0 | highly selective and potent inhibitors of thrombin
3 | 2800 | Nc1ccc(CNC(=O)[C@@H]2CCCN2C(=O)[C@@H](Cc2ccccc2)NC(=O)OCc2ccccc2)cc1 [Compound 12, N-CBZ-D-phenylalanyl-N-[2-(4-aminobenzyl)]-L-prolinamide] |  | highly selective and potent inhibitors of thrombin
